The values that follow come from patent US20120065165A1, “COMPOSITIONS AND METHODS OF TREATING ENDOTHELIAL DISORDERS” (ARGINETIX, INC, priority 2008, published 2012).

In one experiment the test system is rat aortic tissues. The experiment in a line: cGMP levels in aortic rings of old rats incubated with sildenafil and ABH (cGMP EIA). Type of experiment: cell-based. To be noted: sildenafil 0 nM. Here is the method: The source of tissue was old (22 to 24 months) male Fischer 344 rats purchased from National Institute for Aging (NIA). The rats were anesthetized in an isoflurane chamber and euthanized. The entire length of the aorta (thoracic, arch, abdominal) were dissected out and cleaned free of connective tissue. These aorta were then sectioned into ˜3 mm long rings. Samples were collected from 2 rats and pooled. […] Rings were incubated in varying concentrations of sildenafil (0-2000 nM) and ABH (0-500 nM) prepared in 200 μL Krebs buffer for 10 min at 37° C. The rings were then snap frozen in liquid nitrogen following treatment. The next day, samples were homogenized in 200 μL 6% TCA buffer (prepared by adding TCA to DI water) at 4° C. for extraction of cyclic nucleotides. The samples were then centrifuged at 12,000 rpm for 5 min at 4° C. Protein pellets were re-dissolved in PBS to determine protein concentration, and supernatant was reserved for cGMP detection. […] ABH (MW 211.45): A stock solution of ABH at a concentration of 100 mM was prepared by dissolving 21.1 mg of ABH into 1 ml Krebs solution. This was used to prepare 5 ml of a 1 mM stock. 200 μL of the 1 mM solution were dispensed into column 12 of a 96-well plate. Six 2× dilutions were prepared in the plate. 200 μL Krebs were dispensed in column 5 to get a concentration range of 0-1000 nM (2× of final concentration). Sildenafil (MW 474.5): A stock solution of sildenafil at a concentartion of 100 mM was prepared by dissolving 47.4 mg of sildenafil into 1 ml Krebs solution; 5 ml of 2 mM stock was prepared from this. Row A received 200 μL of Krebs buffer (0 mM sildenafil), mixed well, and adjusted to a final volume of 200 μL. Next, 200 μL of the 2 mM sildenafil stock was dispensed into row H of the 96 well plate already containing the ABH dilutions ([…]). Six 2× dilutions were prepared from this to get the final concentration ranges for the two drugs. cGMP levels were determined with a cGMP kit (Amersham cGMP Enzyme immunoassay Biotrak (EIA) System Cat #RPN226) and run in accordance with the manufacture's recommendations. The assay uses a competitive fluorescent immunoassay format to measure levels of cGMP. It combines the use of a peroxidase-labelled cGMP conjugate, a specific antiserum which can be immobilized on to pre-coated microplates, and a one-pot stabilized substrate solution. […] In the absence of cGMP most of the HRP conjugate is bound to the antibody and yields a high fluorescence. Increasing concentrations of cGMP competitively decreases the binding of the HRP conjugate, decreasing the measured fluorescence (HRP activity). […] The plate was then incubated for 2 hrs at room temperature with shaking after which it is washed and the fluorescent substrate is added. The plate was incubated for an additional 10 min and then read on a Molecular Devices Gemini EM plate reader set at Ex 530 nm, Em 590 nm (endpoint mode). The signal is reported to be stable for up to 24 hrs, but was generally read within 2 hrs. […] These values were calculated based on the resultant ratio of fluorescence reading of sample divided by fluorescense reading with no cGMP (pmols/mg). For each concentration combination of sildenafil and ABH administered to cells, absorbance (OD at 450 nm) was measured. From these values, the absorbance adjusted for non-specific binding (NSB) for each sample (OD-NSB(B)) was determined from the absorbance (B) divided by the absorbance without cGMP (Bo). Using this value and the standard curve for cGMP, the log (fmol) is found and, after adjusting for the quantity of protein, the pmols of cGMP/mg protein is calculated.

A further experiment has as its system eNOS. The experiment in a line: eNOS activity (L-arginine to L-citrulline) in human diabetic corpus cavernosum extracts. Format: biochemical. To be noted: 1 mM ABH added to diabetic penile extracts. The source says:
In order to study the role of arginase in the development of these defects, corpus cavernosum tissue extracts were obtained from non-diabetic and diabetic men undergoing placement of a penile prosthesis for the management of their severe ED (Bivalacqua, et al., 2001 Biochem. Biophys. Res. Commun. 283: 923-927). […] Constitutive nitric oxide synthase activity (eNOS activity; calcium-dependent conversion of L-arginine to L-citrulline) is […] in human corporal tissue from diabetic patients vs. controls (See FIG. 7C), *P<0.05 when compare to controls; in the presence of the selective arginase inhibitor ABH, eNOS activity in human diabetic corpora caversosa is restored, **P<0.05 when compared to diabetic (Bivalacqua, et al., 2001 Biochem. Biophys. Res. Commun. 283: 923-927).
Diabetic corporal tissue extracts were prepared for the measurement of arginase activity by the production of urea in the presence of labeled arginine (FIG. 7B).

In the case of `N[C@@H](CCCCB(O)O)C(=O)O` [ABH, 2(S)-Amino-6-boronohexanoic acid], the “Theoretical response T(x,y) based on an additive effect” value was 0.34 pmol/mg in the experiment on rat aortic tissues (ABH 7.81 nM), 0.90 pmol/mg in the experiment on rat aortic tissues (ABH 31.25 nM), 1.14 pmol/mg in the experiment on rat aortic tissues (ABH 125 nM) and 0.16 pmol/mg in the experiment with rat aortic tissues (ABH 500 nM). In addition, the “pmols of cGMP/mg protein produced P(x,y)” value in the experiment with rat aortic tissues (ABH 7.81 nM) was 0.34 pmols/mg; in the experiment with rat aortic tissues (ABH 31.25 nM), 0.90 pmols/mg; in the experiment with rat aortic tissues (ABH 125 nM), 1.14 pmols/mg; in the experiment on rat aortic tissues (ABH 500 nM), 0.16 pmols/mg. Besides, the eNOS activity result in the experiment with eNOS is “improved to levels that were comparable to those of control corpus cavernosum”.
